Read-outs that look alike come from different tables or passages of the source.
Experiments:
Assay in all cases: Etest MIC of indicator carbapenems on MH II agar without/with PMBN
Assay type in all cases: cell-based
[1] = system: E. cloacae 1008074 (VIM producer)
Description: (§1) The determinations of antibiotic MIC were carried out on solid culture media with the Etest® method. To do this, Etest® strips (bioMérieux, France) were used: • Etest® Imipenem IM 32, and • Etest® Ertapenem ETP 32, and also solid culture media, differing from one another by virtue of their non-inhibitory concentrations of PMBN.
(§2) These solid culture media are prepared in Petri dishes (0=145 mm; V=50 ml) on a base of MH II Agar (Becton Dickinson®, United States), more or less supplemented with PMBN. The PMBN concentrations range from 0 up to concentrations equivalent to one fifth of the MIC of PMBN (⅕ MICPMBN).
(§3) Using a swab and the Retro C80™ rota-plater (bioMérieux, France), the culture media were inoculated with the bacteria, originating from an inoculum of 0.5 McFarland, prepared in 0.85% NaCl solution from colonies subcultured the day before on MH II agar.
(§4) The various Etest® strips are then deposited on the surface of the culture media. After 16 to 20 hours of incubation at 35° C., the MICS were read.
(§5) By way of indicator carbapenems according to the invention, in addition to imipenem (IM) and ertapenem (ETP), meropenem (MP) was also tested. Like the other two antibiotics, meropenem was used in the form of Etest® strips (Etest® Meropenem MP 32 from the company bioMérieux, France).
(§6) The methods used to prepare the new culture media and to carry out the antibiotic-sensitivity tests are identical to those described above.

[2] = system: E. cloacae 1109137 (OXA-48 producer)
Description: as §1, §2, §3, §4, §5, §6

[3] = system: E. cloacae 1204052 (membrane impermeability)
Description: as §1, §2, §3, §4, §5, §6

[4] = system: E. cloacae 1204056 (membrane impermeability)
Description: as §1, §2, §3, §4, §5, §6

[5] = system: E. cloacae 1204058 (membrane impermeability); settings: in µg/mL
Description: as §1, §2, §3, §4, §5, §6

[6] = system: E. cloacae 1204153 (membrane impermeability); settings: in µg/mL
Description: as §1, §2, §3, §4, §5, §6

[7] = system: E. coli 1008078 (VIM producer)
Description: as §1, §2, §3, §4, §5, §6

E. coli SAB 100 (porin−) = settings: Escherichia coli
Description: as §1, §2, §3, §4, §5, §6

E. coli SAB 108 (porin−) = settings: Escherichia coli
Description: as §1, §2, §3, §4, §5, §6

[8] = system: Enterobacter aerogenes EA 27 (porin−); settings: Klebsiella aerogenes, read-out: MIC
Description: as §1, §2, §3, §4, §5, §6

[9] = system: Enterobacter aerogenes EA 5 (porin−); settings: Klebsiella aerogenes
Description: as §1, §2, §3, §4, §5, §6

[10] = system: K. pneumoniae 1012142 (KPC-2 producer)
Description: as §1, §2, §3, §4, §5, §6

[11] = system: K. pneumoniae 1103183 (NDM producer)
Description: as §1, §2, §3, §4, §5, §6

[12] = system: K. pneumoniae 1108003 (KPC-3 producer)
Description: as §1, §2, §3, §4, §5, §6

[13] = system: K. pneumoniae 1204035 (membrane impermeability); settings: in µg/mL
Description: as §1, §2, §3, §4, §5, §6

[14] = system: K. pneumoniae 1204036 (membrane impermeability)
Description: as §1, §2, §3, §4, §5, §6

[15] = system: K. pneumoniae 1204039 (membrane impermeability)
Description: as §1, §2, §3, §4, §5, §6

[16] = system: K. pneumoniae KP 55 (porin−); settings: Klebsiella pneumoniae
Description: as §1, §2, §3, §4, §5, §6

[17] = system: K. pneumoniae KP 63 (porin−); settings: Klebsiella pneumoniae
Description: as §1, §2, §3, §4, §5, §6

Structure (SMILES): C[C@@H](O)[C@H]1C(=O)N2C(C(=O)O)=C(SCCN=CN)C[C@H]12 [IM, imipenem]
- MIC ([1]; [PMBN] 0, Table 4a): 3 µg/mL
- MIC ([1]; [PMBN] 100, Table 4a): 3 µg/mL
- MIC ([1]; [PMBN] 200, Table 4a): 8 µg/mL
- MIC ([1]; [PMBN] 300, Table 4a): 6 µg/mL
- MIC ([2]; [PMBN] 0, Table 4a): 1.5 µg/mL
- MIC ([2]; [PMBN] 100, Table 4a): 4 µg/mL
- MIC ([2]; [PMBN] 200, Table 4a): 2 µg/mL
- MIC ([2]; [PMBN] 300, Table 4a): 1.5 µg/mL
- MIC ([3]; [PMBN] 0, Table 4a): 3 µg/mL
- MIC ([3]; [PMBN] 100, Table 4a): 3 µg/mL
- MIC ([3]; [PMBN] 200, Table 4a): 2 µg/mL
- MIC ([3]; [PMBN] 300, Table 4a): 1.5 µg/mL
- MIC ([4]; [PMBN] 0, Table 4a): 6 µg/mL
- MIC ([4]; [PMBN] 100, Table 4a): 2 µg/mL
- MIC ([4]; [PMBN] 200, Table 4a): 1.5 µg/mL
- MIC ([4]; [PMBN] 300, Table 4a): 1 µg/mL
- MIC ([5]; [PMBN] 0, Table 4a): >32
- MIC ([5]; [PMBN] 100, Table 4a): 12
- MIC ([5]; [PMBN] 200, Table 4a): 4
- MIC ([5]; [PMBN] 300, Table 4a): 3
- MIC ([6]; [PMBN] 0, Table 4a): 4
- MIC ([6]; [PMBN] 100, Table 4a): 4
- MIC ([6]; [PMBN] 200, Table 4a): 2
- MIC ([6]; [PMBN] 300, Table 4a): 4
- MIC ([7]; [PMBN] 0, Table 4a): 0.38 µg/mL
- MIC ([7]; [PMBN] 100, Table 4a): 1.5 µg/mL
- MIC ([7]; [PMBN] 200, Table 4a): 0.75 µg/mL
- MIC ([7]; [PMBN] 300, Table 4a): 0.38 µg/mL
- MIC (E. coli SAB 100 (porin−); [PMBN] 0): 0.5 µg/mL
- MIC (E. coli SAB 100 (porin−); [PMBN] 50 μg/ml): 0.38 µg/mL
- MIC (E. coli SAB 100 (porin−); [PMBN] 100 μg/ml): 0.25 µg/mL
- MIC (E. coli SAB 100 (porin−); [PMBN] 150 μg/ml): 0.19 µg/mL
- MIC (E. coli SAB 100 (porin−); [PMBN] 200 μg/ml): 0.19 µg/mL
- MIC (E. coli SAB 108 (porin−); [PMBN] 0): 0.75 µg/mL
- MIC (E. coli SAB 108 (porin−); [PMBN] 50 μg/ml): 0.38 µg/mL
- MIC (E. coli SAB 108 (porin−); [PMBN] 100 μg/ml): 0.25 µg/mL
- MIC (E. coli SAB 108 (porin−); [PMBN] 150 μg/ml): 0.25 µg/mL
- MIC (E. coli SAB 108 (porin−); [PMBN] 200 μg/ml): 0.19 µg/mL
- MIC ([8]; E. aerogenes EA 27 (porin−), [PMBN] 0, Table 4): 12 µg/mL
- MIC ([8]; E. aerogenes EA 27 (porin−), [PMBN] 50 μg/ml): 6 µg/mL
- MIC ([8]; E. aerogenes EA 27 (porin−), [PMBN] 100 μg/ml): 3 µg/mL
- MIC ([8]; E. aerogenes EA 27 (porin−), [PMBN] 150 μg/ml): 3 µg/mL
- MIC ([8]; E. aerogenes EA 27 (porin−), [PMBN] 200 μg/ml): 3 µg/mL
- MIC ([8]; EA 27 (porin−), [PMBN] 0, Table 2): 8 µg/mL
- MIC ([8]; EA 27 (porin−), [PMBN] MIC/5): 0.03 µg/mL
- MIC ([8]; EA 27 (porin−), [PMBN] MIC/8): 0.06 µg/mL
- MIC ([8]; EA 27 (porin−), [PMBN] MIC/10): 8 µg/mL
- MIC ([9]; E. aerogenes EA 5 (porin−), [PMBN] 0, Table 4): 6 µg/mL
- MIC ([9]; E. aerogenes EA 5 (porin−), [PMBN] 50 μg/ml): 4 µg/mL
- MIC ([9]; E. aerogenes EA 5 (porin−), [PMBN] 100 μg/ml): 4 µg/mL
- MIC ([9]; E. aerogenes EA 5 (porin−), [PMBN] 150 μg/ml): 4 µg/mL
- MIC ([9]; E. aerogenes EA 5 (porin−), [PMBN] 200 μg/ml): 3 µg/mL
- MIC ([9]; EA 5 (porin−), [PMBN] 0, Table 2): 4 µg/mL
- MIC ([9]; EA 5 (porin−), [PMBN] MIC/5): 2 µg/mL
- MIC ([9]; EA 5 (porin−), [PMBN] MIC/8): 2 µg/mL
- MIC ([9]; EA 5 (porin−), [PMBN] MIC/10): 2 µg/mL
- MIC ([10]; [PMBN] 0, Table 4a): > 32 µg/mL
- MIC ([10]; [PMBN] 100, Table 4a): > 32 µg/mL
- MIC ([10]; [PMBN] 200, Table 4a): > 32 µg/mL
- MIC ([10]; [PMBN] 300, Table 4a): > 32 µg/mL
- MIC ([11]; [PMBN] 0, Table 4a): 24 µg/mL
- MIC ([11]; [PMBN] 100, Table 4a): > 32 µg/mL
- MIC ([11]; [PMBN] 200, Table 4a): > 32 µg/mL
- MIC ([11]; [PMBN] 300, Table 4a): 6 µg/mL
- MIC ([12]; [PMBN] 0, Table 4a): 6 µg/mL
- MIC ([12]; [PMBN] 100, Table 4a): 8 µg/mL
- MIC ([12]; [PMBN] 200, Table 4a): 12 µg/mL
- MIC ([12]; [PMBN] 300, Table 4a): 12 µg/mL
- MIC ([13]; [PMBN] 0, Table 4a): 1.5
- MIC ([13]; [PMBN] 100, Table 4a): 0.75
- MIC ([13]; [PMBN] 200, Table 4a): 0.5-0.75
- MIC ([13]; [PMBN] 300, Table 4a): 0.5-1
- MIC ([14]; [PMBN] 0, Table 4a): 2 µg/mL
- MIC ([14]; [PMBN] 100, Table 4a): 2 µg/mL
- MIC ([14]; [PMBN] 200, Table 4a): 2 µg/mL
- MIC ([14]; [PMBN] 300, Table 4a): 1.5 µg/mL
- MIC ([15]; [PMBN] 0, Table 4a): 0.38 µg/mL
- MIC ([15]; [PMBN] 100, Table 4a): 0.38 µg/mL
- MIC ([15]; [PMBN] 200, Table 4a): 0.38 µg/mL
- MIC ([15]; [PMBN] 300, Table 4a): 0.38 µg/mL
- MIC ([16]; [PMBN] 0): 0.38 µg/mL
- MIC ([16]; [PMBN] 50 μg/ml): 0.25 µg/mL
- MIC ([16]; [PMBN] 100 μg/ml): 0.25 µg/mL
- MIC ([16]; [PMBN] 150 μg/ml): 0.25 µg/mL
- MIC ([16]; [PMBN] 200 μg/ml): 0.19 µg/mL
- MIC ([17]; [PMBN] 0): 0.25 µg/mL
- MIC ([17]; [PMBN] 50 μg/ml): 0.25 µg/mL
- MIC ([17]; [PMBN] 100 μg/ml): 0.125 µg/mL
- MIC ([17]; [PMBN] 150 μg/ml): 0.125 µg/mL
- MIC ([17]; [PMBN] 200 μg/ml): 0.125 µg/mL
